Measured values reported in ChEMBL document CHEMBL2177034, “Inhibition of hypoxia inducible factor-2 transcription: isolation of active modulators from marine sponges” (J Nat Prod, 2012).
Activity calls are given as the source filed them. No cut-off for these calls is given here.

Columns and labels:
786-0 [1] = test: Downregulation of HIF1alpha mRNA expression in human 786-0 cells at 20 uM after 48 hrs by RT-PCR analysis; assay type: functional, cell-based
[2] = target: T1, Endothelial PAS domain-containing protein 1 (Homo sapiens, UniProt Q99814); test: Inhibition of HIF2alpha in human 786-0 cells assessed as reduction in VEGFA mRNA expression at 20 uM after 48 hrs by RT-PCR analysis; assay type: cell-based
[3] = target: T1, Endothelial PAS domain-containing protein 1; test: Inhibition of HIF2alpha in human 786-0 cells assessed as reduction in CCND1 mRNA expression at 20 uM after 48 hrs by RT-PCR analysis; assay type: cell-based
[4] = target: T1, Endothelial PAS domain-containing protein 1; test: Inhibition of HIF2alpha in human 786-0 cells assessed as reduction in GLUT1 mRNA expression at 20 uM after 48 hrs by RT-PCR analysis; assay type: cell-based
[5] = target: T1, Endothelial PAS domain-containing protein 1; test: Inhibition of HIF2alpha in human 786-0 cells assessed as reduction in TGFalpha mRNA expression at 20 uM after 48 hrs by RT-PCR analysis; assay type: cell-based
[6] = Cytotoxicity against human SK-RC-28 cells expressing HIF1alpha after 2 days by XTT assay; assay type: functional, cell-based; conditions: 48 h
[7] = Cytotoxicity against human RCC4 cells expressing HIF2alpha and HIF1alpha after 2 days by XTT assay; assay type: functional, cell-based; conditions: RCC4, 48 h
786-0 [8] = test: Cytotoxicity against human 786-0 cells expressing HIF2alpha after 2 days by XTT assay; assay type: functional, cell-based; conditions: 786-0, 48 h
786-0 [9] = test: Inhibition of total protein expression in serum deprived human 786-0 cells at 20 uM after 48 hrs relative to control; assay type: cell-based; conditions: 786-0, 48 h, 20 µM
786-0 [10] = test: Inhibition of HIF-mediated VEGFA protein expression in serum deprived human 786-0 cells at 20 uM after 48 hrs relative to control; assay type: cell-based
[11] = target: T1, Endothelial PAS domain-containing protein 1; test: Inhibition of HIF2alpha in human 786-0 cells expressing truncated HIF1alpha assessed as reduction in luciferase activity after 24 hrs by reporter gene assay; assay type: cell-based
[12] = Downregulation of actin mRNA expression in human SK-RC-28 cells expressing HIF2alpha at 20 uM after 48 hrs by RT-PCr analysis; assay type: ADME, cell-based
[13] = Downregulation of actin mRNA expression in human RCC4 cells expressing HIF1alpha and HIF2alpha at 20 uM after 48 hrs by RT-PCr analysis; assay type: ADME, cell-based; conditions: rcc4, 48 h
786-0 [14] = test: Downregulation of actin mRNA expression in human […] at 20 uM after 48 hrs by RT-PCr analysis; assay type: ADME, cell-based; conditions: 786-0, 48 h
[15] = target: Hypoxia-inducible factor 1-alpha (Homo sapiens) (UniProt Q16665); test: Inhibition of HIF1alpha in human SK-RC-28 cells assessed as reduction in carbonic anhydrase 9 expression at 20 uM after 48 hrs by RT-PCR analysis; assay type: cell-based
[16] = (§1) Downregulation of HIF2alpha mRNA expression in human RCC4 cells at 20 uM after 48 hrs by RT-PCR analysis; assay type: functional, cell-based
[17] = (§2) Downregulation of HIF1alpha mRNA expression in human RCC4 cells at 20 uM after 48 hrs by RT-PCR analysis; assay type: functional, cell-based
[18] = target: Hypoxia-inducible factor 1-alpha (Homo sapiens) (UniProt Q16665); test: Inhibition of HIF1alpha in human RCC4 cells coexpressing HIF2alpha assessed as decrease in carbonic anhydrase 9 mRNA expression at 20 uM after 48 hrs by RT-PCR analysis; assay type: cell-based
786-0 [19] = test: Downregulation of carbonic anhydrase 9 expression in human 786-0 cells at 20 uM after 48 hrs by RT-PCR analysis; assay type: functional, cell-based
[20] = target: Hypoxia-inducible factor 1-alpha (Homo sapiens) (UniProt Q16665); test: Inhibition of HIF1alpha in human SK-RC-28 cells assessed as reduction in VEGFA expression at 20 uM after 48 hrs by RT-PCR analysis; assay type: cell-based
[21] = target: Hypoxia-inducible factor 1-alpha (Homo sapiens) (UniProt Q16665); test: Inhibition of HIF1alpha in human SK-RC-28 cells assessed as reduction in carbonic anhydrase expression at 20 uM after 48 hrs by RT-PCR analysis; assay type: cell-based
[22] = Downregulation of HIF2alpha mRNA expression in human SK-RC-28 cells at 20 uM after 48 hrs by RT-PCR analysis; assay type: functional, cell-based
[23] = Downregulation of HIF1alpha mRNA expression in human SK-RC-28 cells at 20 uM after 48 hrs by RT-PCR analysis; assay type: functional, cell-based
[24] = Downregulation of CCND1 mRNA expression in human SK-RC-28 cells at 20 uM after 48 hrs by RT-PCR analysis; assay type: functional, cell-based
[25] = Downregulation of GLUT1 mRNA expression in human SK-RC-28 cells at 20 uM after 48 hrs by RT-PCR analysis; assay type: functional, cell-based
[26] = Downregulation of TGFalpha mRNA expression in human SK-RC-28 cells at 20 uM after 48 hrs by RT-PCR analysis; assay type: functional, cell-based
[27] = as §1; assay type: functional, cell-based; remark: listed apart in the source
[28] = as §2; assay type: functional, cell-based; remark: listed apart in the source
[29] = target: T2, Hypoxia inducible factors; HIF-1-alpha, HIF-2-alpha (Homo sapiens) (UniProt Q16665+Q99814); test: Inhibition of HIF1alpha/2alpha in human RCC4 cells assessed as reduction in VEGFA mRNA expression at 20 uM after 48 hrs by RT-PCR analysis; assay type: cell-based
[30] = target: T1, Endothelial PAS domain-containing protein 1; test: Inhibition of HIF2alpha in human RCC4 cells coexpressing HIF1alpha assessed as reduction in CCND1 mRNA expression at 20 uM after 48 hrs by RT-PCR analysis; assay type: cell-based
[31] = target: T1, Endothelial PAS domain-containing protein 1; test: Inhibition of HIF2alpha in human RCC4 cells coexpressing HIF1alpha assessed as reduction in GLUT1 mRNA expression at 20 uM after 48 hrs by RT-PCR analysis; assay type: cell-based
[32] = target: T1, Endothelial PAS domain-containing protein 1; test: Inhibition of HIF2alpha in human RCC4 cells coexpressing HIF1alpha assessed as reduction in TGFalpha mRNA expression at 20 uM after 48 hrs by RT-PCR analysis; assay type: cell-based
786-0 [33] = test: Downregulation of HIF2alpha mRNA expression in human 786-0 cells at 20 uM after 48 hrs by RT-PCR analysis; assay type: functional, cell-based
786-0 [34] = test: Downregulation of HIF1alpha mRNA expression in human 786-0 cells at 79 uM after 48 hrs by RT-PCR analysis; assay type: functional, cell-based
786-0 [35] = test: Upregulation of carbonic anhydrase 9 mRNA expression in human 786-0 cells at 79 uM after 48 hrs by RT-PCR analysis; assay type: ADME, cell-based; conditions: 786-0, 48 h
[36] = target: T1, Endothelial PAS domain-containing protein 1; test: Inhibition of HIF2alpha in human 786-0 cells assessed as reduction in VEGFA mRNA expression at 79 uM after 48 hrs by RT-PCR analysis; assay type: cell-based
[37] = target: T1, Endothelial PAS domain-containing protein 1; test: Inhibition of HIF2alpha in human 786-0 cells assessed as reduction in CCND1 mRNA expression at 79 uM after 48 hrs by RT-PCR analysis; assay type: cell-based
[38] = target: T1, Endothelial PAS domain-containing protein 1; test: Inhibition of HIF2alpha in human 786-0 cells assessed as reduction in GLUT1 mRNA expression at 79 uM after 48 hrs by RT-PCR analysis; assay type: cell-based
[39] = target: T1, Endothelial PAS domain-containing protein 1; test: Inhibition of HIF2alpha in human 786-0 cells assessed as reduction in TGFalpha mRNA expression at 79 uM after 48 hrs by RT-PCR analysis; assay type: cell-based
786-0 [40] = test: Induction of total protein expression in serum deprived human 786-0 cells at 79 uM after 48 hrs relative to control; assay type: cell-based; conditions: 786-0, 48 h
786-0 [41] = test: Induction of HIF-mediated VEGFA expression in serum deprived human 786-0 cells at 79 uM after 48 hrs relative to control; assay type: cell-based
[42] = target: Hypoxia-inducible factor 1-alpha (Homo sapiens) (UniProt Q16665); test: Inhibition of HIF1alpha in human SK-RC-28 cells assessed as reduction in VEGFA expression at 79 uM after 48 hrs by RT-PCR analysis; assay type: cell-based
[43] = target: Hypoxia-inducible factor 1-alpha (Homo sapiens) (UniProt Q16665); test: Inhibition of HIF1alpha in human SK-RC-28 cells assessed as reduction in carbonic anhydrase expression at 79 uM after 48 hrs by RT-PCR analysis; assay type: cell-based
[44] = Downregulation of HIF2alpha mRNA expression in human SK-RC-28 cells at 79 uM after 48 hrs by RT-PCR analysis; assay type: functional, cell-based
[45] = Downregulation of HIF1alpha mRNA expression in human SK-RC-28 cells at 79 uM after 48 hrs by RT-PCR analysis; assay type: functional, cell-based
[46] = Downregulation of CCND1 mRNA expression in human SK-RC-28 cells at 79 uM after 48 hrs by RT-PCR analysis; assay type: functional, cell-based
[47] = Downregulation of GLUT1 mRNA expression in human SK-RC-28 cells at 79 uM after 48 hrs by RT-PCR analysis; assay type: functional, cell-based
[48] = Downregulation of TGFalpha mRNA expression in human SK-RC-28 cells at 79 uM after 48 hrs by RT-PCR analysis; assay type: functional, cell-based
[49] = Downregulation of HIF2alpha mRNA expression in human RCC4 cells at 79 uM after 48 hrs by RT-PCR analysis; assay type: functional, cell-based
[50] = Downregulation of HIF1alpha mRNA expression in human RCC4 cells at 79 uM after 48 hrs by RT-PCR analysis; assay type: functional, cell-based
[51] = target: T2, Hypoxia inducible factors; HIF-1-alpha, HIF-2-alpha (Homo sapiens); test: Inhibition of HIF1alpha/2alpha in human RCC4 cells assessed as reduction in VEGFA mRNA expression at 79 uM after 48 hrs by RT-PCR analysis; assay type: cell-based
[52] = target: T1, Endothelial PAS domain-containing protein 1; test: Inhibition of HIF2alpha in human RCC4 cells coexpressing HIF1alpha assessed as reduction in CCND1 mRNA expression at 79 uM after 48 hrs by RT-PCR analysis; assay type: cell-based
[53] = target: T1, Endothelial PAS domain-containing protein 1; test: Inhibition of HIF2alpha in human RCC4 cells coexpressing HIF1alpha assessed as reduction in GLUT1 mRNA expression at 79 uM after 48 hrs by RT-PCR analysis; assay type: cell-based
[54] = target: T1, Endothelial PAS domain-containing protein 1; test: Inhibition of HIF2alpha in human RCC4 cells coexpressing HIF1alpha assessed as reduction in TGFalpha mRNA expression at 79 uM after 48 hrs by RT-PCR analysis; assay type: cell-based
[55] = target: Hypoxia-inducible factor 1-alpha (Homo sapiens) (UniProt Q16665); test: Inhibition of HIF1alpha in human RCC4 cells coexpressing HIF2alpha assessed as decrease in carbonic anhydrase 9 mRNA expression at 79 uM after 48 hrs by RT-PCR analysis; assay type: cell-based
786-0 [56] = test: Downregulation of HIF2alpha mRNA expression in human 786-0 cells at 79 uM after 48 hrs by RT-PCR analysis; assay type: functional, cell-based

T1 sequence (Q99814 whole entry, the tested form may be a part): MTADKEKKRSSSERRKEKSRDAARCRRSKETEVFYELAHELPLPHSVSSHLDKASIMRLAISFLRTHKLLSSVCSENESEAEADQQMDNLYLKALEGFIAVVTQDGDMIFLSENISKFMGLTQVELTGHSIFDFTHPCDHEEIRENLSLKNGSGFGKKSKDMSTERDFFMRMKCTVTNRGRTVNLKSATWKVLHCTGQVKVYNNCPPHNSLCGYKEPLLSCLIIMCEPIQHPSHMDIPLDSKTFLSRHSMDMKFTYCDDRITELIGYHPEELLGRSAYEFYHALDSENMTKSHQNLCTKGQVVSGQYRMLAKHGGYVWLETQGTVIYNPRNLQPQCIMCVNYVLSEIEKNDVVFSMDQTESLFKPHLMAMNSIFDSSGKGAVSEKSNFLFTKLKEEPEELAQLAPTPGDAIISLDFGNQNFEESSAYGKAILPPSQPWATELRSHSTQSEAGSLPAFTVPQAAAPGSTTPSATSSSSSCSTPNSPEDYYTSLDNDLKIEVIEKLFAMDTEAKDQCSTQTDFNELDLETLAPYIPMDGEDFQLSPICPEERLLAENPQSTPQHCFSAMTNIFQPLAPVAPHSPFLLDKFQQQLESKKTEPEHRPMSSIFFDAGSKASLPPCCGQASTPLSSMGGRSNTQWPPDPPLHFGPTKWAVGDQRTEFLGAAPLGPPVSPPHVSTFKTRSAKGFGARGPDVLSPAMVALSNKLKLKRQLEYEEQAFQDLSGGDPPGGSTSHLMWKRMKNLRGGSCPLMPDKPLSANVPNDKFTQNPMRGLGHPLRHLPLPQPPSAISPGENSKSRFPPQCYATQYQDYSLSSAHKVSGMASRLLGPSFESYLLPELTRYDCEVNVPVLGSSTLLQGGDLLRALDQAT
Hypoxia-inducible factor 1-alpha (Homo sapiens), sequence (Q16665 whole entry, looked up): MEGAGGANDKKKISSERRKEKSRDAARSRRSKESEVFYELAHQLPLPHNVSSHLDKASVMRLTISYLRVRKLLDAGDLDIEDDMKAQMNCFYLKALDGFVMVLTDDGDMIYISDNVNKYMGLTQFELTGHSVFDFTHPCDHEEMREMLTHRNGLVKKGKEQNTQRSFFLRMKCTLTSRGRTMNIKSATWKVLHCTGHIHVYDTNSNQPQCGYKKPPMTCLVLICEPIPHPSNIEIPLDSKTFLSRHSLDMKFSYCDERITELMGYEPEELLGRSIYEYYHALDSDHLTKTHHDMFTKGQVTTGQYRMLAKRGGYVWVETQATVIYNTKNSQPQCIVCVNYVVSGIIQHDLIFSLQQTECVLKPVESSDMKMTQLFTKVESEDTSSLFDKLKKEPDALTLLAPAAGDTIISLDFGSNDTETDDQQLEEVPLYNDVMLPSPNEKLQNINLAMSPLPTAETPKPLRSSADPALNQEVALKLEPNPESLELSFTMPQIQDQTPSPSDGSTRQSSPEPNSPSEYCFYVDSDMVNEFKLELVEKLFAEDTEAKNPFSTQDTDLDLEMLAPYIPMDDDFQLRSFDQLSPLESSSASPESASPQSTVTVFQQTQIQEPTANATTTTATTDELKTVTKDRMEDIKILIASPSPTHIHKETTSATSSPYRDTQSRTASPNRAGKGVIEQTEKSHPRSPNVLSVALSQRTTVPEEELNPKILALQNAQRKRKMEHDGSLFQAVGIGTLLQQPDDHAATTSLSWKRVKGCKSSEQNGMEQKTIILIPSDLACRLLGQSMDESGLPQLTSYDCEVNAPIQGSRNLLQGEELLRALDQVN

C#C[C@@H](O)/C=C/CCCCCCC#C[C@H](O)C#C/C=C/CC/C=C\CCCC/C=C\CCCCCCCCCCCCC/C=C/[C@@H](O)C#C [NEOPETROFORMYNE A]
Activity (786-0 [1]): Active
inhibition [2]: Active
inhibition [3]: Active
inhibition [4]: Active
inhibition [5]: Active
IC50 [6]: 35.1 µM
IC50 [7]: 27.5 µM
IC50 (786-0 [8]): 14.4 µM
Activity (786-0 [9]): Toxic
inhibition (786-0 [10]): Active
EC50 [11]: 8.7 µM
Activity [12]: Toxic
Activity [13]: Toxic
Activity (786-0 [14]): Toxic
inhibition [15]: Active
Activity [16]: Active
Activity [17]: Active
inhibition [18]: Active
Activity (786-0 [19]): Active
inhibition [20]: Active
inhibition [21]: Active
Activity [22]: Active
Activity [23]: Active
Activity [24]: Active
Activity [25]: Active
Activity [26]: Active
Activity [27]: Active
Activity [28]: Active
inhibition [29]: Active
inhibition [30]: Active
inhibition [31]: Active
inhibition [32]: Active
Activity (786-0 [33]): Active

C/C=C(/C)C(=O)OCC1C2=C(C=CN1C=O)C(=O)C(C)=C(OC)C2=O (mixture of isomers)
Activity (786-0 [34]): Active
Activity (786-0 [35]): Toxic
inhibition [36]: Active
inhibition [37]: Active
inhibition [38]: Active
inhibition [39]: Active
IC50 [6]: 38.7 µM
IC50 [7]: 26.3 µM
IC50 (786-0 [8]): 33.8 µM
Activity (786-0 [40]): Toxic
Activity (786-0 [41]): Active
EC50 [11]: 2.7 µM
inhibition [42]: inactive
inhibition [43]: inactive
Activity [44]: inactive
Activity [45]: inactive
Activity [46]: inactive
Activity [47]: inactive
Activity [48]: inactive
Activity [49]: Active
Activity [50]: Active
inhibition [51]: Active
inhibition [52]: Active
inhibition [53]: Active
inhibition [54]: Active
inhibition [55]: Active
Activity (786-0 [56]): Active
